Assay results from BindingDB's records for doi:10.1016/j.ejmech.2016.05.062 (University of Siena, 2016).

Assay: Agonist activity at Smo in mouse C3H10T1/2 cells assessed as induction of cell differentiation into osteoblast incubated for 6 days by alkaline phosphatase assay

EC50 [nM]	SMILES
130	CNC1CCC(N(Cc2cccc(-c3ccncc3)c2)C(=O)c2sc3ccccc3c2Cl)CC1 (stereo unspecified)

Assay: Activity at Smo in mouse C3H10T1/2 cells assessed as induction of cell differentiation into osteoblast incubated for 6 days by alkaline phosphatase assay

SMILES	EC50 [nM]
CCCCCCn1c(=O)c(C(=O)Nc2ccc(C(=O)O)cc2)c(O)c2ccccc21	600
CCCCCCn1c(=O)c(C(=O)Nc2ccc(C(=O)OCC)cc2)c(O)c2ccccc21	3600
CCCCCn1c(=O)c(C(=O)Nc2ccc(C(=O)OCCCC)cc2)c(O)c2ccccc21	600
CCCCCCn1c(=O)c(C(=O)Nc2ccc(C(=O)OCCC)cc2)c(O)c2ccccc21	1200
CCCCCn1c(=O)c(C(=O)Nc2ccc(C(=O)OCCC)cc2)c(O)c2ccccc21	700
CCCOC(=O)c1ccc(NC(=O)c2c(O)c3cc(OC)c(OC)cc3n(CCC)c2=O)cc1	360
CCCCCCn1c(=O)c(C(=O)Nc2ccc(C(=O)OCc3ccccc3)cc2)c(O)c2ccccc21	2000
CCCOC(=O)c1ccc(NC(=O)c2c(O)c3cc(Cl)ccc3n(CCC)c2=O)cc1	4900
CCCOC(=O)c1ccc(NC(=O)c2c(O)c3cc(C)ccc3n(CCC)c2=O)cc1	1200
CCCCCCn1c(=O)c(C(=O)Nc2ccc(C(=O)OC(C)C)cc2)c(O)c2ccccc21	6500
CCCCCCn1c(=O)c(C(=O)Nc2ccc(C(=O)OCCCC)cc2)c(O)c2ccccc21	1500
CCCOC(=O)c1ccc(NC(=O)c2c(O)c3cccc4c3n(c2=O)CCC4)cc1	800
CCCOC(=O)c1ccc(NC(=O)c2c(O)c3ccccc3n(CCC)c2=O)cc1	2600
c1ccc2c(Oc3nc(Nc4ccc(N5CCOCC5)cc4)c4ncn(C5CCCCC5)c4n3)cccc2c1 [Purmorphamine]	800
CCCCCCn1c(=O)c(C(=O)Nc2ccc(C(=O)NCCCC)cc2)c(O)c2ccccc21	5800
CCCCCn1c(=O)c(C(=O)Nc2ccc(C(=O)OCC)cc2)c(O)c2ccccc21	900
C=CCn1c(=O)c(C(=O)Nc2ccc(C(=O)OCCC)cc2)c(O)c2ccccc21	3400
CCCCn1c(=O)c(C(=O)Nc2ccc(C(=O)OCCC)cc2)c(O)c2ccccc21	800
CCCCCCn1c(=O)c(C(=O)Nc2ccc(C(=O)OC(C)(C)C)cc2)c(O)c2ccccc21	3100
CCCOC(=O)c1ccc(NC(=O)c2c(O)c3cc(F)ccc3n(CCC)c2=O)cc1	2400
